Reference: US5684151A, “1-arylsulphonyl, arylcarbonyl and 1-arylphosphonyl-3-phenyl-1,4,5,6-tetrahydropyridazines” (priority 1995, dated 1997)

Each compound was assayed on mouse (MC3T3-E1) and human (TE-85) osteoblast-line cells (assay: not given). Details: 10^-7.
Format: cell-based
Text: Compounds of the present invention have utility to treat osteoporosis through enhancement of bone calcification rather than traditional approaches which generally involve inhibition of bone degeneration or resorption. The compounds of the present invention have been evaluated as stimulators of proliferation of osteoblast cell and chick calivaria bone organ culture which is predictive of enhancement of bone mass and bone formation in vivo.
The action of select compounds to stimulate osteoblast growth was measured in culture by estimating the rate of DNA synthesis by the rate of ^3 H-thymidine incorporation into DNA. Only cells undergoing mitosis synthesized new DNA and thus only these cells incorporated the radiolabelled DNA-specific thymidine. The stimulation of the proliferation and differentiation of bone-forming cells, osteoblasts, was a prerequisite for an increase in bone formation and bone mass. The ability of agents to increase osteoblast proliferation and differentiation can be predicted by their action on cultured osteoblast-line cells in vitro. In this test, mouse (MC3T3-E1) and human (TE-85) osteoblast-line cells (American Type Tissue Culture Collection, #CRL 1543, Rockville, Md. cloned by Sudo et al., Koriyama, Japan) were cultured in vitro and the effect of various agents were tested on osteoblast cell proliferation. Cells were harvested from large culture flasks where they were allowed to grow to near confluency using trypsin. The cells were plated into 96 well culture plates, 1600 cells in 100 μL per well in Dulbencos Modified Eagle's Medium (DMEM) with 25 mM HEPES buffer, L-glutamine (584 mg/L); D-glucose (4.5 g/L) supplemented with fetal bovine sera (10%); penicillin (100 units/mL) and streptomycin (100 mcg/mL); sodium pyruvate (10 μM final concentration). The cells were allowed to plate overnight in DMEM containing 10% fetal bovine sera at 37° C. in an atmosphere of 5% CO2/95% air. Following their placement into 96 well culture plates all the osteoblast-line cells, either the MC3T3-E1 or the TE-85 cell lines, were allowed an additional 24 hours preincubation period in media containing only 0.1% fetal bovine sera.
Twenty hours later, a 20 μL aliquot of media containing 0.4 μCi of ^3 H-thymidine was added to each culture well. The cells were then incubated an additional 4 hours. The incubation was terminated by aspirating the media and washing with HBSS (Hank's Balanced Salt Solution). The cells were then treated with 100 μL of 0.5% trypsin and 5.3 mM EDTA for 30 minutes at room temperature. The cells were then aspirated onto glass fiber filter and washed with water. The radioactivity on the filters was quantified by liquid scintillation spectroscopy. The rate of ^3 H-thymidine incorporation into DNA was then utilized as an index of cell proliferation. The results are shown in Table 13 expressed as % times control where the control is 100%. […]

| SMILES | Osteoblast Cell Proliferation, 3H-thymidine incorporation vs control (100%) [%] |
| --- | --- |
| Nc1c(Br)cc(C2=NN(C(=O)c3ccc(Cl)c(Cl)c3)CCC2)cc1Br [Compound 265, (3-4-Amino-3,5-dibromophenyl)-1-(3,4-dichlorobenzoyl)-1,4,5,6-tetrahydropyridazine] | 110 |
| CS(=O)(=O)c1ccc(S(=O)(=O)N2CCCC(c3ccc(Cl)c(Cl)c3)=N2)cc1 [Compound 275, 3-(3,4-Dichlorophenyl)-1-(4-methylsulfonylbenzenesulfonyl)-1,4,5,6-tetrahydropyridazine] | 145 |

Same assay, conditions: 10^-8

| SMILES | Osteoblast Cell Proliferation, 3H-thymidine incorporation vs control (100%) [%] |
| --- | --- |
| Nc1c(Br)cc(C2=NN(C(=O)c3ccc(Cl)c(Cl)c3)CCC2)cc1Br [Compound 265, (3-4-Amino-3,5-dibromophenyl)-1-(3,4-dichlorobenzoyl)-1,4,5,6-tetrahydropyridazine] | 112 |
| CS(=O)(=O)c1ccc(S(=O)(=O)N2CCCC(c3ccc(Cl)c(Cl)c3)=N2)cc1 [Compound 275, 3-(3,4-Dichlorophenyl)-1-(4-methylsulfonylbenzenesulfonyl)-1,4,5,6-tetrahydropyridazine] | 153 |

Same assay, conditions: 10^-9

| SMILES | Osteoblast Cell Proliferation, 3H-thymidine incorporation vs control (100%) [%] |
| --- | --- |
| Nc1c(Br)cc(C2=NN(C(=O)c3ccc(Cl)c(Cl)c3)CCC2)cc1Br [Compound 265, (3-4-Amino-3,5-dibromophenyl)-1-(3,4-dichlorobenzoyl)-1,4,5,6-tetrahydropyridazine] | 112 |
| CS(=O)(=O)c1ccc(S(=O)(=O)N2CCCC(c3ccc(Cl)c(Cl)c3)=N2)cc1 [Compound 275, 3-(3,4-Dichlorophenyl)-1-(4-methylsulfonylbenzenesulfonyl)-1,4,5,6-tetrahydropyridazine] | 128 |

Same assay, conditions: 10^-10

| SMILES | Osteoblast Cell Proliferation, 3H-thymidine incorporation vs control (100%) [%] |
| --- | --- |
| Nc1c(Br)cc(C2=NN(C(=O)c3ccc(Cl)c(Cl)c3)CCC2)cc1Br [Compound 265, (3-4-Amino-3,5-dibromophenyl)-1-(3,4-dichlorobenzoyl)-1,4,5,6-tetrahydropyridazine] | 115 |
| CS(=O)(=O)c1ccc(S(=O)(=O)N2CCCC(c3ccc(Cl)c(Cl)c3)=N2)cc1 [Compound 275, 3-(3,4-Dichlorophenyl)-1-(4-methylsulfonylbenzenesulfonyl)-1,4,5,6-tetrahydropyridazine] | 136 |

The compounds below were run against T1, progestin receptor from rabbit uterus (Oryctolagus cuniculus, UniProt P06186) (assay: Progestin receptor binding (3H-R5020 displacement)). Details: rabbit uterine cytosol, 4° C., 18 h, read-out: IC50: Binding affinity for the progestin receptor from rabbit uterus.
T1 construct: Cytosolic progestin receptor were obtained by mixing rabbit uterine tissue with a Tris buffer; from tissue; host or cells: rabbit uterus cytosol
Method: A progestin initiates a biological response by first binding to a progestin receptor. Affinity for progestin receptors was determined by measuring the ability of compounds to displace a progestin radioligand from those receptors in vitro. Cytosolic progestin receptor were obtained by mixing rabbit uterine tissue with a Tris buffer [0.1M Tris-Hcl, 1 mM Na2 EDTA, 1 mM dithiothreotol, 1 mM sodium molybdate, 1% glycerol, pH 7.4]. The tissue/buffer mixture was homogenized under ice-cold conditions. The homogenate was then centrifuged and the supernatant (cytosol preparation) was decanted and stored at -70° C. and thawed prior to use. The competitive binding assay was performed by mixing ^3 H-R5020, a progestin radioligand, with cytosol preparation and various concentrations of test compounds (prepared in DMSO with a final 5% DMSO concentration). This mixture was then incubated at 4° C. for about 18 hours. Non-specific binding was determined using an unlabelled ligand in excess. After the incubation period, the radioligand bound to receptor was separated from free radioligand using dextran-coated charcoal. The amount of bound radioligand was then determined by liquid scintillation counting. The data were expressed as the concentration of test compound that displaced 50% of the radioligand from the receptor (IC50)
Aspects of the application used in this procedure are described in the following: J. L. McGuire et al., Biochemistry 13, 319, 1974.

T1 sequence (P06186 whole entry): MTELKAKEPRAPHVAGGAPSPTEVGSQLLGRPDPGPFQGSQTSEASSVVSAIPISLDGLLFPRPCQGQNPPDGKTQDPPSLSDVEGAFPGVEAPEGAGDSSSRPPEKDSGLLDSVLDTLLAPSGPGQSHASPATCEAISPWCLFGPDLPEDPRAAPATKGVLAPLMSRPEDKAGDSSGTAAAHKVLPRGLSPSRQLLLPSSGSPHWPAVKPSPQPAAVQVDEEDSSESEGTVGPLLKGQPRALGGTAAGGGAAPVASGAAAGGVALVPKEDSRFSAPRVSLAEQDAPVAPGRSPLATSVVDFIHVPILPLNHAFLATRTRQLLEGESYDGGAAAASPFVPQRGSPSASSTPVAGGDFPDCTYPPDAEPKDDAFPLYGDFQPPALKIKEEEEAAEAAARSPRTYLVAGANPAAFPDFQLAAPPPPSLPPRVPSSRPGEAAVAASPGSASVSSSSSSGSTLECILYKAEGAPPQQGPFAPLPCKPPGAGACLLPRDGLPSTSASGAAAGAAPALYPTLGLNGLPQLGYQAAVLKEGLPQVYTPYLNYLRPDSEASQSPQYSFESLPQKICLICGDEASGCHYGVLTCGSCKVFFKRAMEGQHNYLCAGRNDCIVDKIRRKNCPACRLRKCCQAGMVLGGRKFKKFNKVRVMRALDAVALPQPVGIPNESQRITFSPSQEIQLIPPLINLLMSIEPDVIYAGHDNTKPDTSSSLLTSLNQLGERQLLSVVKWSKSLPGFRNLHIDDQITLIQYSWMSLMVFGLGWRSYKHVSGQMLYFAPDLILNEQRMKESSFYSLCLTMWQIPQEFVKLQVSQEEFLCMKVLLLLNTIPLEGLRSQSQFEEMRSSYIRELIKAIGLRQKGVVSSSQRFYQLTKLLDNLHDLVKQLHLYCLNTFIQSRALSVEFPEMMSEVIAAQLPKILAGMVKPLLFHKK

| SMILES | IC50 [nM] |
| --- | --- |
| O=S(=O)(c1ccc(I)cc1)N1CCCC(c2ccc(Cl)cc2)=N1 [Compound 16] | 4.2 |
| O=S(=O)(c1ccc(F)cc1)N1CCCC(c2ccc(Cl)cc2)=N1 [Compound 17] | 48 |
| O=S(=O)(c1ccc(F)cc1)N1CCCC(c2ccc(F)cc2)=N1 [Compound 18] | 204 |
| O=S(=O)(c1ccc(Br)cc1)N1CCCC(c2ccc(F)cc2)=N1 [Compound 19] | 61 |
| O=S(=O)(c1ccc(I)cc1)N1CCCC(c2ccc(F)cc2)=N1 [Compound 20] | 56 |
| O=[N+]([O-])c1ccc(S(=O)(=O)N2CCCC(c3ccc(F)cc3)=N2)c([N+](=O)[O-])c1 [Compound 23] | 3000 |
| O=[N+]([O-])c1ccccc1S(=O)(=O)N1CCCC(c2ccc(F)cc2)=N1 [Compound 24] | 308 |
| COC(=O)c1ccccc1S(=O)(=O)N1CCCC(c2ccc(F)cc2)=N1 [Compound 26] | 451 |
| O=[N+]([O-])c1ccccc1S(=O)(=O)N1CCCC(c2ccc(Cl)cc2)=N1 [Compound 27] | 65 |
| O=[N+]([O-])c1ccc(S(=O)(=O)N2CCCC(c3ccc(Cl)cc3)=N2)c([N+](=O)[O-])c1 [Compound 28] | 3140 |
| COC(=O)c1ccccc1S(=O)(=O)N1CCCC(c2ccc(Cl)cc2)=N1 [Compound 29] | 244 |
| O=S(=O)(c1ccc(Cl)c(Cl)c1)N1CCCC(c2ccc(Cl)cc2)=N1 [Compound 30] | 22 |
| O=S(=O)(c1cc(Cl)cc(Cl)c1)N1CCCC(c2ccc(Cl)cc2)=N1 [Compound 31] | 4 |
| O=S(=O)(c1ccc(C(F)(F)F)cc1)N1CCCC(c2ccc(Cl)cc2)=N1 [Compound 36] | 11.5 |
| O=S(=O)(c1ccccc1)N1CCCC(c2ccc(Cl)cc2)=N1 [Compound 37] | 12.9 |
| O=S(=O)(c1ccc(Cl)cc1)N1CCCC(c2ccccc2)=N1 [Compound 48] | 266 |
| O=S(=O)(c1ccc(Br)cc1)N1CCCC(c2ccccc2)=N1 [Compound 49] | 127 |
| O=S(=O)(c1ccc(I)cc1)N1CCCC(c2ccccc2)=N1 [Compound 50] | 316 |
| O=S(=O)(c1cc(Cl)ccc1Cl)N1CCCC(c2ccccc2)=N1 [Compound 52] | 42 |
| O=[N+]([O-])c1ccc(S(=O)(=O)N2CCCC(c3ccccc3)=N2)cc1 [Compound 53] | 2200 |
| O=S(=O)(c1ccc(F)cc1)N1CCCC(c2ccccc2)=N1 [Compound 54] | 780 |
| CCCCc1ccc(S(=O)(=O)N2CCCC(c3ccccc3)=N2)cc1 [Compound 55] | 21.9 |
| O=S(=O)(c1cccc2ccccc12)N1CCCC(c2ccccc2)=N1 [Compound 56] | 85.2 |
| O=[N+]([O-])c1cc(S(=O)(=O)N2CCCC(c3ccccc3)=N2)ccc1Cl [Compound 58] | 444 |
| O=S(=O)(c1ccc(F)cc1F)N1CCCC(c2ccccc2)=N1 [Compound 59] | 455 |
| O=S(=O)(c1ccc(Cl)c(Cl)c1)N1CCCC(c2ccccc2)=N1 [Compound 60] | 191 |
| O=S(=O)(c1ccc(C(F)(F)F)cc1)N1CCCC(c2ccccc2)=N1 [Compound 61] | 435 |
| O=[N+]([O-])c1cccc(S(=O)(=O)N2CCCC(c3ccccc3)=N2)c1 [Compound 62] | 157 |

| SMILES | IC50 [nM] |
| --- | --- |
| O=S(=O)(c1ccccc1)N1CCCC(c2ccccc2)=N1 [Compound 66] | 375 |
| O=[N+]([O-])c1cc(S(=O)(=O)N2CCCC(c3ccc(Cl)cc3)=N2)ccc1Cl [Compound 67] | 126 |
| O=S(=O)(c1cc(Cl)c(Cl)cc1Cl)N1CCCC(c2ccc(Cl)cc2)=N1 [Compound 68] | 13.4 |
| CCCCc1ccc(C2=NN(S(=O)(=O)c3cccc([N+](=O)[O-])c3)CCC2)cc1 [Compound 70] | 10000 |
| CCCCc1ccc(C2=NN(S(=O)(=O)c3ccc(CCCC)cc3)CCC2)cc1 [Compound 75] | 10000 |
| CCCCc1ccc(C2=NN(S(=O)(=O)c3ccccc3)CCC2)cc1 [Compound 76] | 10000 |
| O=S(=O)(c1ccccc1)N1CCCC(c2ccc(Cl)c(C(F)(F)F)c2)=N1 [Compound 83] | 4.83 |
| O=S(=O)(c1cc(Cl)ccc1Cl)N1CCCC(c2cccc(Cl)c2)=N1 [Compound 91] | 2.39 |
| Cc1ccc(S(=O)(=O)N2CCCC(c3cccc(Cl)c3)=N2)cc1 [Compound 92] | 23.9 |
| O=S(=O)(c1ccc(Cl)cc1)N1CCCC(c2cccc(Cl)c2)=N1 [Compound 93] | 11.1 |
| O=S(=O)(c1ccc(I)cc1)N1CCCC(c2cccc(Cl)c2)=N1 [Compound 96] | 12.1 |
| O=S(=O)(c1cccc(C(F)(F)F)c1)N1CCCC(c2ccc(Cl)c(Cl)c2)=N1 [Compound 98] | 2.5 |
| O=S(=O)(c1ccc(Cl)cc1)N1CCCC(c2ccc(Br)cc2)=N1 [Compound 99] | 21 |
| O=S(=O)(c1ccc(Br)cc1)N1CCCC(c2ccc(Br)cc2)=N1 [Compound 100] | 23 |
| Cc1ccc(S(=O)(=O)N2CCCC(c3ccc(Br)cc3)=N2)cc1 [Compound 101] | 195 |
| O=S(=O)(c1cc(Cl)ccc1Cl)N1CCCC(c2ccc(Br)cc2)=N1 [Compound 102] | 9 |
| O=S(=O)(c1ccccc1)N1CCCC(c2ccc(Br)cc2)=N1 [Compound 103] | 149 |
| O=S(=O)(c1ccc(F)cc1)N1CCCC(c2ccc(Cl)c(Cl)c2)=N1 [Compound 106] | 7.11 |
| O=S(=O)(c1cc(Cl)c(Cl)cc1Cl)N1CCCC(c2ccc(Cl)c(Cl)c2)=N1 [Compound 107] | 7.45 |
| CCCCc1ccc(S(=O)(=O)N2CCCC(c3ccc(Cl)c(Cl)c3)=N2)cc1 [Compound 108] | 3.35 |
| O=S(=O)(c1ccc2c(c1)CCCC2)N1CCCC(c2ccc(Cl)c(Cl)c2)=N1 [Compound 114] | 6.5 |
| CCCCc1ccc(S(=O)(=O)N2CCCC(c3ccc(Cl)c(C(F)(F)F)c3)=N2)cc1 [Compound 116] | 8.77 |
| O=S(=O)(c1ccc(Cl)cc1)N1CCCC(c2ccc3ccccc3c2)=N1 [Compound 117] | 4.97 |
| O=S(=O)(c1cc(Cl)ccc1Cl)N1CCCC(c2ccc3ccccc3c2)=N1 [Compound 118] | 5.56 |
| O=S(=O)(c1cc(Cl)ccc1Cl)N1CCCC(c2ccc3c(c2)OCCO3)=N1 [Compound 123] | 557 |
| O=S(=O)(c1cccc(C(F)(F)F)c1)N1CCCC(c2ccc(Cl)c(C(F)(F)F)c2)=N1 [Compound 126] | 7.14 |
| O=[N+]([O-])c1cccc(S(=O)(=O)N2CCCC(c3ccc(Cl)c(C(F)(F)F)c3)=N2)c1 [Compound 127] | 4.04 |
